Tests used:
Ras farnesyl transferase = molecular target: T1, Ras farnesyl transferase (Homo sapiens, UniProt P49354+P49356); experiment: Ras farnesyl transferase inhibiting activity (filter-binding, tritium-farnesylpyrophosphate, Ras-CVLS substrate); type: biochemical; details: recombinant Ras farnesyl transferase, 30 minutes at 37° C., read-out: Ftase IC50
T1 construct: made in house

[1] = system: intracellular Ras farnesyl transferase, Rat2 cell line; experiment: Intracellular Ras farnesyl transferase inhibiting activity in transformed Rat2 cells (35S-methionine labelling, Y13-259 immunoprecipitation, SDS-PAGE); type: cell-based; details: Rattus norvegicus; transformed Rat2 fibroblast cell line; concentration inhibiting 50% of farnesyl binding of Ras protein; read-out: Ftase CIC50
In short: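 Rat2 fibroblasts transformed with H-Ras, or with H-Ras carrying the K-Ras polybasic lysine C-terminus, were treated with compound (1% DMSO). After 4 h they were labelled for 20 h with 150 μCi/ml 35S-methionine. Lysates were immunoprecipitated with Y13-259, run on 13.5% SDS-PAGE and autoradiographed; CIC50 is the concentration halving farnesylated versus unfarnesylated Ras band intensity.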

[2] = molecular target: T2, Geranylgeranyl transferase (Bos taurus, UniProt P29702+Q5EAD5); experiment: Geranylgeranyl transferase inhibiting activity (geranylgeranyl pyrophosphate, Ras-CVIL substrate); type: biochemical; details: geranylgeranyl transferase purified from bovine brain, read-out: GGtase IC50
T2 construct: Geranylgeranyl transferase was purified from bovine brain; from tissue; host or cells: bovine brain
In short: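 Bovine-brain-purified enzyme run as in the farnesyl transferase assay, with geranylgeranyl pyrophosphate and Ras-CVIL substrate protein under similar reaction conditions.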

Row | Compound | IC50 (Ras farnesyl transferase) | IC50 [1] | IC50 [2]
1 | N#Cc1ccc(Cn2cncc2CN2C(=O)CN(Cc3cccc4ccccc34)C2=O)cc1 [Compound 75, 4-[5-(3-naphthalen-1-ylmethyl-2,5-dioxo-imidazolidin-1-ylmethyl)-imidazol-1-ylmethyl]-benzonitrile] | 0.03 µM | > 50 µM | > 10 µM
2 | O=C(OCc1ccccc1)N1CCC(Cn2cncc2CN2C(=O)CN(Cc3cccc4ccccc34)C2=O)CC1 [Compound 76, 4-[5-(3-naphthalen-1-ylmethyl-2,5-dioxo-imidazolidin-1-ylmethyl)-imidazol-1-ylmethyl]-piperidine-1-carboxylic acid benzyl ester] | 5 µM | > 50 µM | > 10 µM
3 | CCOC(=O)CC1C(=O)N(Cc2cncn2Cc2ccc(C#N)cc2)C(=O)N1Cc1cccc2ccccc12 (stereo not drawn) [Compound 77, {1-[3-(4-cyano-benzyl)-3H-imidazol-4-ylmethyl]-3-naphthalen-1-ylmethyl-2,5-dioxo-imidazolidin-4-yl}-acetic acid ethyl ester] | 0.05 µM | < 10 µM | > 10 µM
4 | N#Cc1ccc(Cn2cncc2CN2C(=O)C(CC(=O)O)N(Cc3cccc4ccccc34)C2=O)cc1 (stereo not drawn) [Compound 78, {1-[3-(4-cyano-benzyl)-3H-imidazol-4-ylmethyl]-3-naphthalen-1-ylmethyl-2,5-dioxo-imidazolidin-4-yl}-acetic acid] | 0.1 µM | < 20 µM | > 10 µM
5 | COC(=O)C[C@H]1C(=O)N(Cc2cncn2Cc2ccc(C#N)cc2)C(=O)N1Cc1cccc2ccccc12 [Compound 79, {1-[3-(4-cyano-benzyl)-3H-imidazol-4-ylmethyl]-3-naphthalen-1-ylmethyl-2,5-dioxo-imidazolidin-(4S)-yl}-acetic acid methyl ester] | 0.04 µM | < 10 µM | > 10 µM
6 | N#Cc1ccc(Cn2cncc2CN2C(=O)C(CC(=O)N3CCOCC3)N(Cc3cccc4ccccc34)C2=O)cc1 (stereo not drawn) [Compound 80, 4-{5-[4-(2-morpholin-4-yl-2-oxo-ethyl)-3-naphthalen-1-ylmethyl-2,5dioxo-imidazolidin-1-ylmethyl]-imidazol-1-ylmethyl}-benzonitrile] | 0.09 µM | < 10 µM | > 10 µM
7 | N#Cc1ccc(Cn2cncc2CN2C(=O)[C@H](CC(=O)N3CCOCC3)N(Cc3cccc4ccccc34)C2=O)cc1 [Compound 81, 4-{(5S)-[4-(2-morpholin-4-yl-2-oxo-ethyl)-3-naphthalen-1-ylmethyl-2,5-dioxo-imidazolidin-1-ylmethyl]-imidazol-1-ylmethyl}-benzonitrile] | 0.11 µM | < 20 µM | > 10 µM
8 | CN(C)CCNC(=O)CC1C(=O)N(Cc2cncn2Cc2ccc(C#N)cc2)C(=O)N1Cc1cccc2ccccc12 (stereo not drawn) [Compound 82, 2-{1-[3-(4-cyano-benzyl)-3H-imidazol-4-ylmethyl]-3-naphthalen-1-ylmethyl-2,5-dioxo-imidazolidin-4-yl}-N-(2-(N,N-dimethylamino)-ethyl)-acetamide] | 0.15 µM | < 20 µM | > 10 µM
9 | COCCN(C)C(=O)CC1C(=O)N(Cc2cncn2Cc2ccc(Br)cc2)C(=O)N1Cc1cccc2ccccc12 (stereo not drawn) [Compound 83, 2-{1-[3-(4-bromo-benzyl)-3H-imidazol-4-ylmethyl]-3-naphthalen-1-ylmethyl-2,5dioxo-imidazolidin-4-yl}-N-(2-methoxy-ethyl)-N-methyl-acetamide] | 1.5 µM | > 50 µM | > 10 µM
10 | CN1CCN(C(=O)C[C@H]2C(=O)N(Cc3cncn3Cc3ccc(C#N)cc3)C(=O)N2Cc2cccc3ccccc23)CC1 [Compound 84, 4-((5S)-{4-[2-(4-methyl-piperazin-1-yl)-2-oxo-ethyl]-3-naphthalen-1-ylmethyl-2,5-dioxo-imidazolidin-1-ylmethyl}-imidazol-1-ylmethyl)-benzonitrile] | 0.12 µM | < 20 µM | > 10 µM
